Literature values in patent publication US4350696A, “Imidazole derivatives, process for their preparation and pharmaceutical compositions thereof” (Pfizer Inc., priority 1980, dated 1982).

Columns and labels:
[1] = tested on: aggregation of platelets; settings: rats in vivo, abdominal aorta loop
[2] = tested on: human blood platelet aggregation; settings: in vitro, a variety of aggregating agents
[3] = tested on: platelet clumping and embolisation in the lungs; settings: rabbit, intravenous injection of arachidonic acid

| Structure (SMILES) | prevention of platelet aggregation in extra corporeal loop [1] | inhibitory activity against platelet aggregation [2] | protection from lethal effect of intravenous arachidonic acid [3] |
| --- | --- | --- | --- |
| O=C1C(CC[S+]([O-])c2ccccc2)C(=O)N(c2ccccc2)N1c1ccccc1 (stereo not shown) [sulphinpyrazone] | prevent the aggregation of platelets | show inhibitory activity |  |
| CC(=O)Oc1ccccc1C(=O)O [aspirin] |  | show inhibitory activity | protect the rabbit from the lethal effect of the injection |
